# Data taken from PubChem BioAssay AID192 (DTP/NCI, 2004).
# “And” between values parts separate entries of the source, which are not always exact repeats. Equal entries are not always repeated. Inconclusive results and toxic doses are left out.
# System: BDF1 mice, B16 melanoma ip, median survival T/C
# Assay: NCI In Vivo Anticancer Drug Screen. Data for tumor model B16 Melanoma (intraperitoneal) in B6D2F1 (BDF1) mice
# Conditions: endpoint: median survival time, higher = longer survival
# How it was run: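 Mice with transplantable tumors; drug vs vehicle groups; endpoint survival or tumor size; value = T/C.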
# [1] = dose: 0.78 mg/kg/injection, schedule: Q01DX009 (ip), vehicle: Klucel (hydroxypropylcellulose) (HPC)
# [2] = dose: 1.56 mg/kg/injection, schedule: Q01DX009 (ip), vehicle: Klucel (hydroxypropylcellulose) (HPC)
# [3] = dose: 100.0 mg/kg/injection, schedule: Q01DX009 (ip), vehicle: Klucel (hydroxypropylcellulose) (HPC)
# [4] = dose: 200.0 mg/kg/injection, schedule: Q01DX009 (ip), vehicle: Klucel (hydroxypropylcellulose) (HPC)
# [5] = dose: 400.0 mg/kg/injection, schedule: Q01DX009 (ip), vehicle: Klucel (hydroxypropylcellulose) (HPC)
# [6] = dose: 25.0 mg/kg/injection, schedule: Q01DX009 (ip), vehicle: saline with Tween-80
# [7] = dose: 50.0 mg/kg/injection, schedule: Q01DX009 (ip), vehicle: saline with Tween-80
# [8] = dose: 100.0 mg/kg/injection, schedule: Q01DX009 (ip), vehicle: saline with Tween-80
# [9] = dose: 200.0 mg/kg/injection, schedule: Q01DX009 (ip), vehicle: saline with Tween-80
# [10] = dose: 25.0 mg/kg/injection, schedule: Q01DX009 (ip), vehicle: saline
# [11] = dose: 25.0 mg/kg/injection, schedule: Q01DX009 (ip), vehicle: Klucel (hydroxypropylcellulose) (HPC)
# [12] = dose: 50.0 mg/kg/injection, schedule: Q01DX009 (ip), vehicle: Klucel (hydroxypropylcellulose) (HPC)
structure (smiles),measurement,setting,value
COC(=O)[C@H]1[C@H]2C[C@@H]3c4[nH]c5cc(OC)ccc5c4CCN3C[C@H]2C[C@@H](OC(=O)c2cccc(N(C)C)c2)[C@@H]1OC,T/C,"dose: 0.39 mg/kg/injection, schedule: Q01DX009 (ip), vehicle: Klucel (hydroxypropylcellulose) (HPC)",93 % of control
same,T/C,[1],91 % of control and 94 % of control
same,T/C,[2],97 % of control and 116 % of control
same,T/C,"dose: 3.12 mg/kg/injection, schedule: Q01DX009 (ip), vehicle: Klucel (hydroxypropylcellulose) (HPC)",94 % of control
CCN(C(=O)Nc1ccc(OC)cc1)c1ccccc1,T/C,[3],97 % of control
same,T/C,[4],100 % of control
same,T/C,[5],88 % of control
CCCN1COC(OCC)C(C)(C)C1 (stereo not given),T/C,[6],104 % of control
same,T/C,[7],100 % of control
same,T/C,[8],98 % of control
same,T/C,[9],100 % of control
c1ccc(CC[P+](c2ccccc2)(c2ccccc2)c2ccccc2)cc1,T/C,[1],92 % of control
same,T/C,[2],103 % of control
same,T/C,"dose: 3.13 mg/kg/injection, schedule: Q01DX009 (ip), vehicle: Klucel (hydroxypropylcellulose) (HPC)",92 % of control
O=C1NC(=O)c2cccc3cccc1c23,T/C,"dose: 100.0 mg/kg/injection, schedule: Q04DX003 (ip), vehicle: saline with Tween-80",94 % of control
C[n+]1ccccc1/C=N/O,T/C,"dose: 18.75 mg/kg/injection, schedule: Q01DX009 (ip), vehicle: saline",100 % of control
same,T/C,"dose: 37.5 mg/kg/injection, schedule: Q01DX009 (ip), vehicle: saline",107 % of control
same,T/C,"dose: 75.0 mg/kg/injection, schedule: Q01DX009 (ip), vehicle: saline",88 % of control and 106 % of control
CCCCN1CCNCC1,T/C,[10],103 % of control
same,T/C,"dose: 50.0 mg/kg/injection, schedule: Q01DX009 (ip), vehicle: saline",103 % of control
same,T/C,"dose: 100.0 mg/kg/injection, schedule: Q01DX009 (ip), vehicle: saline",101 % of control
COC(=O)/C=C/N1C(=O)c2ccccc2C1=O,T/C,[3],91 % of control
same,T/C,"dose: 135.0 mg/kg/injection, schedule: Q01DX009 (ip), vehicle: Klucel (hydroxypropylcellulose) (HPC)",90 % of control
same,T/C,[4],95 % of control
same,T/C,"dose: 300.0 mg/kg/injection, schedule: Q01DX009 (ip), vehicle: Klucel (hydroxypropylcellulose) (HPC)",95 % of control
same,T/C,[5],91 % of control
COc1cc2c(c3c1c(=O)c1ccccc1n3C)C=CC(C)(C)O2,T/C,[6],102 % of control
same,T/C,[7],107 % of control
O=Nc1c(O)ccc2ccccc12,T/C,[11],90 % of control
same,T/C,[12],93 % of control
COc1cc2c(c(OC)c1OC)-c1ccc(OC)c(=O)cc1[C@@H](NC(C)=O)CC2,T/C,"dose: 0.12 mg/kg/injection, schedule: Q01DX009 (ip), vehicle: saline",123 % of control
same,T/C,"dose: 0.13 mg/kg/injection, schedule: Q01DX009 (ip), vehicle: saline",120 % of control
same,T/C,"dose: 0.25 mg/kg/injection, schedule: Q01DX009 (ip), vehicle: water",179 % of control
same,T/C,"dose: 0.4 mg/kg/injection, schedule: Q01DX009 (ip), vehicle: saline",152 % of control
same,T/C,"dose: 0.5 mg/kg/injection, schedule: Q01DX009 (ip), vehicle: saline",113 % of control
same,T/C,"dose: 0.5 mg/kg/injection, schedule: Q01DX009 (ip), vehicle: water",150 % of control and 154 % of control
same,T/C,"dose: 1.0 mg/kg/injection, schedule: Q01DX009 (ip), vehicle: water",166 % of control
same,T/C,"dose: 63.0 micrograms/kg/injection, schedule: Q01DX009 (ip), vehicle: saline",121 % of control
same,T/C,"dose: 250.0 micrograms/kg/injection, schedule: Q01DX009 (ip), vehicle: saline",150 % of control
same,T/C,"dose: 500.0 micrograms/kg/injection, schedule: Q01DX009 (ip), vehicle: saline",151 % of control
same,T/C,"dose: 1000.0 micrograms/kg/injection, schedule: Q01DX009 (ip), vehicle: saline",155 % of control
O=C(Nc1cccc([N+](=O)[O-])c1)c1cc2ccccc2cc1O,T/C,[8],110 % of control
same,T/C,[9],107 % of control
same,T/C,"dose: 400.0 mg/kg/injection, schedule: Q01DX009 (ip), vehicle: saline with Tween-80",105 % of control
CCc1cc(O)cc(C)c1Cl,T/C,"dose: 12.5 mg/kg/injection, schedule: Q01DX009 (ip), vehicle: saline with Tween-80",95 % of control
same,T/C,[6],110 % of control
same,T/C,[7],99 % of control and 106 % of control
CC1CN1P1(N2CC2C)=NP(N2CC2C)(N2CC2C)=NP(N2CC2C)(N2CC2C)=N1 (stereo not given),T/C,"dose: 0.78 mg/kg/injection, schedule: Q01DX009 (ip), vehicle: saline",111 % of control
same,T/C,"dose: 1.0 mg/kg/injection, schedule: Q01DX009 (ip), vehicle: saline",89 % of control and 99 % of control
same,T/C,"dose: 1.0 mg/kg/injection, schedule: Q02DX009 (ip), vehicle: saline",91 % of control and 100 % of control
same,T/C,"dose: 1.56 mg/kg/injection, schedule: Q01DX009 (ip), vehicle: saline",104 % of control
same,T/C,"dose: 2.0 mg/kg/injection, schedule: Q01DX009 (ip), vehicle: saline",96 % of control and 103 % of control
same,T/C,"dose: 2.0 mg/kg/injection, schedule: Q02DX009 (ip), vehicle: saline",100 % of control and 105 % of control and 107 % of control
same,T/C,"dose: 3.12 mg/kg/injection, schedule: Q01DX009 (ip), vehicle: saline",105 % of control
same,T/C,"dose: 4.0 mg/kg/injection, schedule: Q01DX009 (ip), vehicle: saline",110 % of control and 116 % of control
same,T/C,"dose: 4.0 mg/kg/injection, schedule: Q02DX009 (ip), vehicle: saline",99 % of control and 103 % of control and 110 % of control
same,T/C,"dose: 6.25 mg/kg/injection, schedule: Q01DX009 (ip), vehicle: saline",97 % of control and 117 % of control
same,T/C,"dose: 8.0 mg/kg/injection, schedule: Q01DX009 (ip), vehicle: saline",107 % of control
same,T/C,"dose: 8.0 mg/kg/injection, schedule: Q02DX009 (ip), vehicle: saline",108 % of control and 109 % of control and 112 % of control
same,T/C,"dose: 12.5 mg/kg/injection, schedule: Q01DX009 (ip), vehicle: saline",116 % of control
same,T/C,"dose: 16.0 mg/kg/injection, schedule: Q01DX009 (ip), vehicle: saline",117 % of control
same,T/C,"dose: 16.0 mg/kg/injection, schedule: Q02DX009 (ip), vehicle: saline",101 % of control and 112 % of control and 116 % of control
same,T/C,[10],114 % of control and 118 % of control
same,T/C,"dose: 32.0 mg/kg/injection, schedule: Q01DX009 (ip), vehicle: saline",110 % of control
same,T/C,"dose: 32.0 mg/kg/injection, schedule: Q02DX009 (ip), vehicle: saline",109 % of control
same,T/C,"dose: 64.0 mg/kg/injection, schedule: Q01DX009 (ip), vehicle: saline",105 % of control
same,T/C,"dose: 64.0 mg/kg/injection, schedule: Q02DX009 (ip), vehicle: saline",115 % of control
CCN(CC)CCCC(C)Nc1c2ccc(Cl)cc2nc2cc(Cl)ccc12 (stereo not given),T/C,"dose: 12.5 mg/kg/injection, schedule: Q01DX009 (ip), vehicle: Klucel (hydroxypropylcellulose) (HPC)",106 % of control
same,T/C,[11],106 % of control
same,T/C,[12],122 % of control
NC(N)=NCCc1ccccc1,T/C,"dose: 5.0 mg/kg/injection, schedule: Q01DX009 (ip), vehicle: saline",119 % of control
same,T/C,"dose: 10.0 mg/kg/injection, schedule: Q01DX009 (ip), vehicle: saline",111 % of control
same,T/C,"dose: 20.0 mg/kg/injection, schedule: Q01DX009 (ip), vehicle: saline",114 % of control
COc1ccc(N=C(N)NC#N)cc1,T/C,[3],105 % of control
same,T/C,[4],99 % of control
C=CCNC(=S)Nc1ccc(C)cc1,T/C,[12],100 % of control
same,T/C,[3],93 % of control
same,T/C,[4],90 % of control
Oc1c(CN2CCCC2)cc(Nc2cc(/C=C/c3ccc(Cl)cc3)nc(/C=C\c3ccc(Cl)cc3)n2)cc1CN1CCCC1,T/C,"dose: 3.0 mg/kg/injection, schedule: Q04DX003 (ip), vehicle: Klucel (hydroxypropylcellulose) (HPC)",105 % of control
same,T/C,"dose: 6.0 mg/kg/injection, schedule: Q04DX003 (ip), vehicle: Klucel (hydroxypropylcellulose) (HPC)",97 % of control
same,T/C,"dose: 12.0 mg/kg/injection, schedule: Q04DX003 (ip), vehicle: Klucel (hydroxypropylcellulose) (HPC)",89 % of control
CCOC(=O)C1CCCN(S(=O)(=O)c2ccc(C)cc2)c2ccccc2C1=O (stereo not given),T/C,"dose: 100.0 mg/kg/injection, schedule: Q04DX003 (ip), vehicle: Klucel (hydroxypropylcellulose) (HPC)",96 % of control
same,T/C,"dose: 200.0 mg/kg/injection, schedule: Q04DX003 (ip), vehicle: Klucel (hydroxypropylcellulose) (HPC)",88 % of control
same,T/C,"dose: 400.0 mg/kg/injection, schedule: Q04DX003 (ip), vehicle: Klucel (hydroxypropylcellulose) (HPC)",95 % of control
CC(C)NC(=O)c1ccc(N/N=[N+](/C)[O-])cc1,T/C,[6],121 % of control
same,T/C,[7],107 % of control
same,T/C,[8],93 % of control and 111 % of control
CCCCCCCCCCCCCCCCCCNC(=O)Nc1ccccc1CC,T/C,[7],86 % of control
COc1cc2nc3cc([N+](=O)[O-])ccc3c(Cl)c2cc1OC,T/C,[12],103 % of control
same,T/C,[3],96 % of control
